Source: the supplement of paper PMC8837787

Tested on: Saccharomyces cerevisiae ABC16-Green Monster
Test: growth inhibition at single dose (up to 150 µM), below the 70% cut-off for dose-response; higher = more potent
Conditions: 18 h; 30 °C; YPD
Summary of the method: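 Percent growth inhibition is the reported value. Drug-sensitive S. cerevisiae ABC16-Green Monster cultures in log phase (OD600 0.1–0.2), 200 µl per well in 96-well plates, received each library compound once at 150 µM in biological duplicates, with untreated cultures run alongside. Growth was followed by OD600 at 0 h and after 18 h at 30 °C. Dose-response was not done for compounds below 70% in both replicates.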

Row | Structure (SMILES) | growth inhibition at single dose [%]
1 | COc1ccc(S(=O)(=O)N(Cc2cccs2)c2ccc3c(c2)OCCO3)cc1NC(C)=O | < 70
2 | COC(=O)c1ccc(C2C3=C(O)CC(c4ccc(F)cc4)CC3=Nc3ccccc3N2C(=O)c2ccccc2)cc1 (stereo unspecified) | < 70
3 | CC(C)C(NC(=O)Cc1cccc2ccccc12)C(=O)Nc1cccc(C#N)c1 (stereo unspecified) | < 70
4 | COc1ccc(C(=O)C2CC2c2ccc(Cl)cc2)cc1 (stereo unspecified) | < 70
5 | Cc1ccccc1CN1CCC(O)(c2ccc(Cl)c(C(F)(F)F)c2)CC1 | < 70
6 | Cc1nc(-c2cccc(NCc3ccccc3)c2)[nH]c1C | < 70
7 | O=C(Nc1ccc(F)c(Cl)c1)c1[nH]nc2ccccc12 | < 70
8 | C=CCn1c(SCc2c(C)noc2C)nc2scc(C3CC3)c2c1=O | < 70
9 | O=C(Nc1ccc(-c2nc3ccccc3[nH]2)cc1)C1CCC1 | < 70
10 | O=C(Nc1ncccc1O)c1ccc(-n2ccnc2)cc1 | < 70
11 | CCOc1cc2c(cc1OCC)C(c1cc(OC)c(O)cc1Cl)NCC2 (stereo unspecified) | < 70
12 | Cc1ccn2cc(C(=O)Nc3nnc(CC(C)C)s3)nc2c1 | < 70
13 | COCc1[nH]n2c3cccc(=O)c-3nnc2c1-c1ccccc1 | < 70
14 | O=C(NC1CCN(Cc2ccccc2)CC1)c1cc(-c2cccnc2)nc2ccc(Cl)cc12 | < 70
15 | CNc1snc(C)c1C(=O)Nc1ccc(OC)c(Cc2ccccc2)c1 | < 70
16 | CNc1nnc(Sc2ncnc3ccsc23)s1 | < 70
17 | COc1cccc(-c2cc3c(Nc4cccnc4)nccc3[nH]2)c1 | < 70
18 | CCOC(=O)c1c[nH]c2c(C)cc(Cl)cc2c1=O | < 70
19 | Cc1cc(C)c2c(c1)OCN(Cc1ccccc1Cl)C2 | < 70
20 | CC(=O)Oc1ccccc1C(=O)Nc1ncc([N+](=O)[O-])s1 | < 70
21 | Cc1csc(SCC(=O)c2cc(C)n(-c3ccccc3)c2C)n1 | < 70
22 | COc1cc(Nc2ncnc3ccsc23)cc(OC)c1 | < 70
23 | Cc1ccc2ncnc(NCCc3ccccc3)c2c1 | < 70
24 | Cc1cc(=O)n2nc(CSc3nc4ccc(Cl)cc4c(=O)n3CC(C)C)sc2n1 | < 70

Row | Structure (SMILES) | growth inhibition at single dose [%]
25 | COc1cc(C(=O)c2c(-c3ccccc3)cc3ccccn23)cc(OC)c1OC | < 70
26 | Cc1cc(C(=O)Nc2cnn(Cc3ccc(Cl)cc3Cl)c2)no1 | < 70
27 | Cc1ccc(Sc2nc(-c3cccs3)ns2)cc1 | < 70
28 | Cc1cc(C)n2ncc(C(=O)Nc3cccc(/C=C/c4ccccn4)c3)c2n1 | < 70
29 | CCOC(=O)c1cnc2c(CC)cccc2c1O | < 70
30 | CN1CCCN(C(c2ccccc2)c2ccc(Cl)cc2)CC1 (stereo unspecified) | < 70
31 | Nc1ncnc2c1ncn2[C@@H]1O[C@H](COS(=O)(=O)NC(=O)c2ccccc2O)[C@@H](O)[C@H]1O | < 70
32 | O=C(/C=C/c1ccc([N+](=O)[O-])cc1)NCC(=O)N1CCN(S(=O)(=O)c2ccc(Cl)cc2)CC1 | < 70
33 | Cc1ccc(C2CC(C(F)(F)F)n3nc(C(=O)N4CCN(C(c5ccccc5)c5ccccc5)CC4)cc3N2)cc1 (stereo unspecified) | < 70
34 | CCCC(c1nnnn1C1CCCCC1)N1CCN(C(=O)c2ccco2)CC1 (stereo unspecified) | < 70
35 | CCOC(=O)C1=C(C)N=c2sc(=Cc3ccccc3O)c(=O)n2C1c1ccc(OC)c2ccccc12 (stereo unspecified) | < 70
36 | O=C(Nc1nnc(-c2ccc(Cl)s2)o1)c1ccc(Cl)s1 | < 70
37 | COc1cccc(/C=C/c2n[nH]c(=O)c(C#N)c2C)c1 | < 70
38 | CC(C)CCNCC(O)Cn1c2ccccc2c2ccccc21 (stereo unspecified) | < 70
39 | COc1ccc(CCN2C(=O)c3[nH]nc(-c4cc(Cl)c(C)cc4O)c3C2c2ccccc2F)cc1 (stereo unspecified) | < 70
40 | Cc1cnc(N2CCN[C@@H](Cc3ccccc3)C2)nc1Oc1ccc(-n2ccnc2)cc1 | < 70
41 | COC(=O)c1ccc(CNC(=O)NCCN2c3ccccc3CCC2C)cc1 (stereo unspecified) | < 70
42 | CCN(Cc1ccccc1)C1CCN(Cc2cc(Br)ccc2O)CC1 | < 70
43 | O=C(Nc1ccc(CN2CCOCC2)cc1)c1ccc(-c2ccc(Br)cc2)o1 | < 70
44 | Cc1cc(NCC(C)C)c2n[nH]c(-c3ccccc3)c2n1 | < 70
45 | CCOc1ccccc1C(=O)Nc1cccc(-c2nc3ncccn3c2C)c1 | < 70
46 | O=C(NNc1cccc(F)n1)C(F)(F)F | < 70
47 | CCOC(=O)c1c(C)[nH]c(C(=O)CSc2nccn2C)c1C | < 70
48 | CC(C)(C)n1nc(-c2ccccc2)c2c(N)ncnc21 | < 70

Row | Structure (SMILES) | growth inhibition at single dose [%]
49 | CCOc1ccc(S(=O)(=O)CC2=NCCc3cc(OC)c(OC)cc32)cc1 | < 70
50 | CCOC(=O)c1cnc2ccc(CC)cc2c1O | < 70
51 | CO/C=C(/C(=O)OC)c1ccccc1Oc1cc(Oc2ccccc2C#N)ncn1 | < 70
52 | CCOC(=O)c1ccc2nc(-c3ccccc3)cc(O)c2c1 | < 70
53 | CCC(Sc1nc2ccccc2o1)C(=O)Nc1nccs1 (stereo unspecified) | < 70
54 | COc1cc(C(F)(F)F)nc2ccc(C)c(N)c12 | < 70
55 | O=C(NC1CCN(c2nccc(C(F)(F)F)n2)CC1)c1ccco1 | < 70
56 | N#C/C(=N\Nc1cc(C(F)(F)F)ccc1OCC(F)(F)F)S(=O)(=O)c1ccccc1 | < 70
57 | O=C(Nc1cccc2c[nH]nc12)c1cnc(OCC(F)(F)F)c(Cl)c1 | < 70
58 | CCCCCCCCCCCCCCCCOP(=O)([O-])OCC[N+](C)(C)C | < 70
59 | COc1ccccc1CNC(=O)C1c2ccccc2C(=O)N(CC(C)C)C1c1cccs1 (stereo unspecified) | < 70
60 | Cc1nn(-c2ccccc2)c(Oc2ccccc2)c1/C=C1\C(=O)Nc2ccccc21 | < 70
61 | CC1(c2ccccc2)Nc2ccccc2-c2nc3ccccc3n21 (stereo unspecified) | < 70
62 | Cc1cc(NCCN2CCCCC2)c2ccc3ccccc3c2n1 | < 70
63 | CCC(C)NCC(O)(c1ccc(Cl)cc1)c1ccc(Cl)cc1 (stereo unspecified) | < 70
64 | O=C(Nc1ccccc1C(=O)Nc1nnc(C(F)(F)F)s1)c1ccccc1 | < 70
65 | CN(CC(=O)Nc1ccc(Cl)c(C(F)(F)F)c1)Cc1ccc(O)c2ncccc12 | < 70
66 | COc1cc(NC(C)CCCN)c2ncccc2c1 (stereo unspecified) | < 70
67 | COc1ccc(CCn2c(=N)c(C(=O)NCc3cccnc3)cc3c(=O)n4cccc(C)c4nc32)cc1 | < 70
68 | Cc1nc2ccccn2c1C(=O)NCc1ccc(Cl)cc1 | < 70
69 | Cc1cc(C(=O)Nc2nc3ccccc3s2)c(C)n1C(C)C | < 70
70 | CCN(CC)S(=O)(=O)c1ccc(C(C)NC(=O)c2nn(CC)c(=O)c3ccccc23)cc1 (stereo unspecified) | < 70
71 | CS(=O)(=O)N1CCC(Cn2nc(Cc3cccc4ccccc34)c3c(N)ncnc32)CC1 | < 70
